The record followed here is patent US5182367A, “5-lipoxygenase activating protein” (priority 1990, dated 1993).

In one assay the test system is leukotriene biosynthesis. Kind of assay: leukotriene biosynthesis / production (cells not specified). It is filed as cell-based. As to conditions: result in words, cells not given.
For assay [1], the target named is T1, 18kD protein (FLAP) (Rattus norvegicus, UniProt P20291).
T1 sequence (P20291 1-161): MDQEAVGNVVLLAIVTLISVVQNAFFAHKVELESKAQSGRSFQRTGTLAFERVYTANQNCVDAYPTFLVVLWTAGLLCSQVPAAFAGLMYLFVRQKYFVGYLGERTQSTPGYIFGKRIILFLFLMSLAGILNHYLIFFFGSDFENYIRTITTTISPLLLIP
Kind of assay: elution of the 18kD protein from MK-886 analogue affinity columns. The assay is classed as binding, rat and human. As to conditions: solubilized neutrophil membranes, result in words. Here is the method: Rat peritoneal neutrophils (Ham, E. A. et al. Proc. Natn. Acad. Sci. USA 80, 4349-4353 (1983)) and human peripheral neutrophils (Boyum, A. Scand. J. Clin. Lab. Invest. (suppl. 97) 21, 77-89 (1968)) at 10^8 cells/ml were sonicated in 50 mM Tris-HCl buffer, pH 7.4, 140 mM NaCl, 2 mM EDTA, 1 mM DTT (dithiotreitol), 10% glycerol (homogenization buffer), together with the protease inhibitors 1 mM phenylmethylsulphonyl fluoride, […], and 10 mM furyl saccharine. After removal of 1000 g and 10,000 g-centrifugation pellets, the 100,000 g pellet was resuspended (3 mg/ml) in the homogenization buffer.
To purify FLAP, the microsome suspension was solubilized on ice for 30 minutes in 50 mM Tris-HCl buffer, pH 7.4, with 140 mM NaCl, 0.5 mM DTT, 5% glycerol and 1% CHAPS detergent (3-[(3-cholamidopropyl)-dimethylammonio]-1-propanesulfonate). After centrifugation for 10 minutes at 30,000 g, the supernatant was applied to 3 ml columns (6×10^9 cell equivalents per column) containing the affinity gel which was prepared by coupling MK-886 in THF (tetrahydrofuran) to pre-activated Affi-Gel 10, capping with ethanolamine,and washing with isopropanol. The columns were washed with […] solubilization buffer for 16 hours at 5° C. and eluted for 1 hour with four column volumes of buffer containing 100 μM MK-886.

Assay [2] concerns the target T2, 18kD protein (FLAP) (Homo sapiens, UniProt P20292).
T2 construct: Incubation of ^125 I-L-669,083 with neutrophil extracts followed by irradiation with ultraviolet light; from tissue; host or cells: neutrophil extracts / human leukocyte membranes (endogenous protein)
T2 sequence (P20292 1-161): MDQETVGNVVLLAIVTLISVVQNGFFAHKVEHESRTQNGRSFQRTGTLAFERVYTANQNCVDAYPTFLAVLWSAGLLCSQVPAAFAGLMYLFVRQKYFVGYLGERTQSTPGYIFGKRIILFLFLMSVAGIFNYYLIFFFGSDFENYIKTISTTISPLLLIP
Put plainly: photoaffinity labelling of the 18kD protein with 125I-L-669,083. The assay is classed as binding. The settings on record: for inhibition of photoaffinity labelling of the 18kD protein: 125I-L-669,083 probe, result in words. From the text: The cellular target of MK-886 was identified by its specific labelling with an I^125 radio-labelled photoaffinity probe (^125 I-L-669,083) and by its retention on agarose gels to which analogues of MK-886 had been bound. […] This protein co-migrated on SDS-polyacrylamide gels with the photoaffinity-labelled protein. The 18kD protein comprised a minor portion of the […]-centrifugation pellet protein and was essentially absent from other cellular fractions.
A polyclonal rabbit antibody was prepared to the N-terminal 39 amino acids of the 18kD protein. The peptide immunogen was prepared by fusion of the DNA sequence coding for the peptide to the N-terminus of Che Y protein, and its expression in and purification from E. coli (Gan, Z. R., Gene 79, 159-166 (1989)). […] When human leukocyte membranes labelled with the ^125 I-L-669,083 photoaffinity probe were immunoprecipitated with the antipeptide antibody, a single labelled protein of Mr 18,000 was observed which was absent in membranes labelled in the presence of competing MK-886.

Assay [3] concerns osteosarcoma 143 cell line expressing 5-LO and FLAP. Put plainly: A23187-stimulated LT synthesis in the 5-LO/FLAP cell line. It is filed as cell-based, human. As to the method: (§1) When the parental osteosarcoma 143 cells or the cells expressing 5-LO or FLAP alone were treated with the Ca^2+ ionophore A23187, no arachidonic acid metabolites were detected. […] A23187-treated rat neutrophils produced these products, as well as 5-HETE and the LTB4 metabolites 20-hydroxy LTB4 and 20-carboxy LTB4. The 5-LO/FLAP cell line produced only 14% of the neutrophil level of LTB4 (0.15 nmol/mg protein versus 1.1 nmol/mg protein), while it produced 41% as much of the LTA4 hydrolysis products (0.064 nmol 6-trans LTB4 and 0.059 nmol 6-trans-12-epi LTB4 /mg protein versus 0.18 nmol 6-trans LTB4 and 0.12 nmol 6-trans-12-epi LTB4 /mg protein).
(§2) Normal rat peritoneal neutrophils were prepared as described by Ham, E. A. et al. (1983, supra). Osteosarcoma 143 cell lines expressing 5-LO were isolated by the method of Rouzer, C. A. et al., J. Biol. Chem. 263, 10135-10140 (1988). The expression vector used contains the CMV immediate early promoter which drives the expression of the 5-LO gene, a hygromycin resistance gene as a selectable marker, and the EBV origin of replication (Rouzer et al., supra). An EcoRI fragment derived from the RBL-1 cDNA clone containing the cDNA insert for rat FLAP was cloned into the EcoRI site of the vector pSVLneo (Dixon, R. A. F. et al., Nature 326, 73-79 (1987)). […]

Assay [4] concerns rat peritoneal neutrophils. Put plainly: A23187-stimulated LT synthesis in neutrophils. It is filed as cell-based. As to the method: as §1, §2
In assay [5] the test system is leukotriene synthesis in human leukocytes. Put plainly: inhibition of leukotriene synthesis in human leukocytes. It is filed as cell-based. As to conditions: Leukocyte; human leukocytes at similar protein concentrations.

In the case of `CC(Cc1ccc(O)c(O)c1)C(C)Cc1ccc(O)c(O)c1` (stereo not drawn) [nordihydroguairaretic acid], in the assay with leukotriene biosynthesis, the “inhibition of leukotriene biosynthesis / production” value is on record as “inhibitory effects on leukotriene production”. For the same compound, the “elution of the 18kD protein from affinity columns/gels” value (shortened to “elution … from affinity columns/gels”) at 18kD protein (FLAP) [1] is reported as “neither eluted the 18kD protein”. The “inhibition of photoaffinity labelling of the 18kD protein” value (shortened to “inhibition … of the 18kD protein”) against 18kD protein (FLAP) [2] is listed as “nor inhibited photoaffinity labelling”.
Turning to `O=c1ccc2nc3ccccc3sc-2c1Cl` [L-615,919, 4-chloro-3H-phenothiazin-3-one], the LT synthesis blocked entry in assay [3] and in assay [4] was “blocked LT synthesis” each time.
As for `COc1ccc2nc3cc(OC)c(=O)c(Br)c-3sc2c1` [L-651,392], the “inhibition of leukotriene biosynthesis / production” value in the assay with leukotriene biosynthesis is “inhibitory effects on leukotriene production”. Moreover, the “elution … from affinity columns/gels” value on 18kD protein (FLAP) [1] is “neither eluted the 18kD protein”. The “inhibition … of the 18kD protein” value against 18kD protein (FLAP) [2] is given as “nor inhibited photoaffinity labelling”.
The matching figures for `COc1ccc2c(c1)c(C(C)C(=O)O)c(C)n2Cc1ccc(Cl)cc1` [L-583,916, 2-(1-p-chlorobenzyl-5-methoxy-2-methylindol-3-yl)propionic acid]: “do not inhibit leukotriene biosynthesis”, “nor did they elute this protein” and “did not inhibit photoaffinity labelling”.
With `CN1CCN(CCCN2c3ccccc3Sc3ccc(C(F)(F)F)cc32)CC1` [trifluoroperazine], the “inhibition of leukotriene biosynthesis / production” value with leukotriene biosynthesis was “inhibitory effects on leukotriene production”. Besides, at 18kD protein (FLAP) [2], the “inhibition … of the 18kD protein” value is “nor inhibited photoaffinity labelling”.
With `Clc1ccc(C(c2ccc(Cl)cc2)n2cc[n+](CC(OCc3ccc(Cl)cc3Cl)c3ccc(Cl)cc3Cl)c2)cc1` (stereo not drawn) [calmidazolium], the “inhibition of leukotriene biosynthesis / production” value in the assay on leukotriene biosynthesis is recorded as “inhibitory effects on leukotriene production”. The “elution … from affinity columns/gels” value at 18kD protein (FLAP) [1] is given as “neither eluted the 18kD protein”. Besides, at 18kD protein (FLAP) [2], the “inhibition … of the 18kD protein” value is given as “nor inhibited photoaffinity labelling”.
The IC50 is the concentration that gives 50% inhibition. As to `CC(C)c1ccc2c(c1)c(SC(C)(C)C)c(CC(C)(C)C(=O)O)n2Cc1ccc(Cl)cc1` [MK-886, 3-[1-(4-chlorobenzyl)-3-t-butylthio-5-isopropylindol-2-yl]-2,2-dimethylpropanoic acid], the LT synthesis blocked result in assay [3] and in assay [4] was “blocked LT synthesis” in each case. Moreover, the IC50 in assay [5] turned out to be 100 nM; on 18kD protein (FLAP) [2], 80 nM. Also, at 18kD protein (FLAP) [1], the “elution … from affinity columns/gels” value was “eluted by MK-886”.
